Legend:
Details in all cases: exposure time: 72 h
E13 [1] = patient-derived glioblastoma stem cells of classical subtype; test: phenotypic distance (Euclidean, principal components) from DMSO controls (arbitrary units); higher = stronger morphological change
E21 [2] = patient-derived glioblastoma stem cells of mesenchymal subtype; test: as above
E28 [3] = patient-derived glioblastoma stem cells of classical subtype; test: as above
E31 = patient-derived glioblastoma stem cells of proneural subtype; test: as above
E34 [4] = patient-derived glioblastoma stem cells of proneural subtype; test: as above
E57 [5] = patient-derived glioblastoma stem cells of mesenchymal subtype; test: as above
FT3469 [6] = normal neural stem cell line; test: as above
E13 [7] = test: surviving fraction (nuclei count normalised to DMSO); higher = more cells surviving (less toxic)
E21 [8] = test: as above
E28 [9] = test: as above
E34 [10] = test: as above
E57 [11] = test: as above
FT3469 [12] = test: as above
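Throughout, for phenotypic distance (Euclidean, principal components) from DMSO controls: cell Painting imaging in 384-well plates, CellProfiler features reduced to at least 20 principal components, Euclidean distance versus same-plate DMSO vehicle wells (0.1% v/v), median over six images per well.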
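Throughout, for surviving fraction (nuclei count normalised to DMSO): nuclei counted by high-content imaging of Hoechst-stained cells in laminin-coated 384-well plates, relative to 0.1% DMSO vehicle wells, with staurosporine as cell-death control.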

Cc1ccc(C(=O)Nc2ccc(CN3CCN(C)CC3)c(C(F)(F)F)c2)cc1C#Cc1cnc2cccnn12 [Ponatinib]
phenotypic distance
Details	E13 [1]	E21 [2]	E28 [3]	E31	E34 [4]	E57 [5]	FT3469 [6]
4.1 nM	1.34	2.02	0.791	0.882	1.37	3.43	1.73
12.3 nM	1.37	5.3	1.19	1.09	1.08	4.1	2.15
37 nM	1.75	1.87	1.3	2.13	1.46	3.63	1.36
111.1 nM	2.38	2.05	1.57	2.63	1.59	3.38	1.58
333.3 nM	2.71	4.01	1.29	2.59	2.93	2.19	2.72
1000 nM	3.02	9.73	2.75	11.1	3.77	4.53	4.78
3000 nM	5.54	9.25	3.32	8.04	5.85	5.68	8.72

CCC(C)(C)C(=O)O[C@H]1C[C@@H](C)C=C2C=C[C@H](C)[C@H](CC[C@@H]3C[C@@H](O)CC(=O)O3)[C@H]21 [Simvastatin]
phenotypic distance
Details	E13 [1]	E21 [2]	E28 [3]	E31	E34 [4]	E57 [5]	FT3469 [6]
4.1 nM	0.99	1.6	1.08	0.808	1.5	1.7	1.31
12.3 nM	0.654	1.96	1.13	0.911	1.01	0.806	1.32
37 nM	1.13	2.52	1.19	0.566	0.739	1.4	2.33
111.1 nM	1.23	2.77	1.42	1.39	0.945	0.799	1.86
333.3 nM	2.27	4.05	1.61	1	1.16	1.19	2.21
1000 nM	2.58	4.54	1.56	0.996	0.529	1.46	2.66
3000 nM	4.02	5.96	3.67	3.45	1.72	3.54	3.39

O=C(C1CC1)N1CC[C@@H](Cc2n[nH]c(=O)n2-c2ccc(-c3ccc4occc4c3)cc2)C1
Details	phenotypic distance	surviving fraction
E13 [1], 4.1 nM	3.07	–
E13 [1], 12.3 nM	3.018	–
E13 [1], 37 nM	3.95	–
E13 [1], 111.1 nM	3.29	–
E13 [1], 333.3 nM	3.49	–
E13 [1], 1000 nM	3.21	–
E13 [1], 3000 nM	2.99	–
E13 [7], 4.1 nM	–	0.7243
E13 [7], 12.3 nM	–	0.771
E13 [7], 37 nM	–	0.726
E13 [7], 111.1 nM	–	0.671
E13 [7], 333.3 nM	–	0.641
E13 [7], 1000 nM	–	0.744
E13 [7], 3000 nM	–	0.66
E21 [2], 4.1 nM	2.24	–
E21 [2], 12.3 nM	2.337	–
E21 [2], 37 nM	2.41	–
E21 [2], 111.1 nM	2.65	–
E21 [2], 333.3 nM	2.64	–
E21 [2], 1000 nM	2.59	–
E21 [2], 3000 nM	2.62	–
E21 [8], 4.1 nM	–	0.835
E21 [8], 12.3 nM	–	0.849
E21 [8], 37 nM	–	0.804
E21 [8], 111.1 nM	–	0.777
E21 [8], 333.3 nM	–	0.749
E21 [8], 1000 nM	–	0.789
E21 [8], 3000 nM	–	0.732
E28 [3], 4.1 nM	2.86	–
E28 [3], 12.3 nM	3.11	–
E28 [3], 37 nM	3.37	–
E28 [3], 111.1 nM	3.59	–
E28 [3], 333.3 nM	3.55	–
E28 [3], 1000 nM	3.85	–
E28 [3], 3000 nM	3.76	–
E28 [9], 4.1 nM	–	0.827
E28 [9], 12.3 nM	–	0.792
E28 [9], 37 nM	–	0.771
E28 [9], 111.1 nM	–	0.752
E28 [9], 333.3 nM	–	0.786
E28 [9], 1000 nM	–	0.662
E28 [9], 3000 nM	–	0.704
E34 [4], 4.1 nM	1.76	–
E34 [4], 12.3 nM	2.04	–
E34 [4], 37 nM	2.26	–
E34 [4], 111.1 nM	2.59	–
E34 [4], 333.3 nM	2.265	–
E34 [4], 1000 nM	2.464	–
E34 [4], 3000 nM	2.5	–
E34 [10], 4.1 nM	–	0.853
E34 [10], 12.3 nM	–	0.872
E34 [10], 37 nM	–	0.906
E34 [10], 111.1 nM	–	0.895
E34 [10], 333.3 nM	–	0.879
E34 [10], 1000 nM	–	0.864
E34 [10], 3000 nM	–	0.811
E57 [5], 4.1 nM	3.85	–
E57 [5], 12.3 nM	3.99	–
E57 [5], 37 nM	4.34	–
E57 [5], 111.1 nM	4.35	–
E57 [5], 333.3 nM	4.55	–
E57 [5], 1000 nM	4.45	–
E57 [5], 3000 nM	4.65	–
E57 [11], 4.1 nM	–	0.616
E57 [11], 12.3 nM	–	0.62
E57 [11], 37 nM	–	0.578
E57 [11], 111.1 nM	–	0.574
E57 [11], 333.3 nM	–	0.526
E57 [11], 1000 nM	–	0.53
E57 [11], 3000 nM	–	0.469
FT3469 [6], 4.1 nM	2.28	–
FT3469 [6], 12.3 nM	2.24	–
FT3469 [6], 37 nM	2.6	–
FT3469 [6], 111.1 nM	3.07	–
FT3469 [6], 333.3 nM	2.8	–
FT3469 [6], 1000 nM	3.17	–
FT3469 [6], 3000 nM	3.52	–
FT3469 [12], 4.1 nM	–	0.786
FT3469 [12], 12.3 nM	–	0.874
FT3469 [12], 37 nM	–	0.823
FT3469 [12], 111.1 nM	–	0.77
FT3469 [12], 333.3 nM	–	0.783
FT3469 [12], 1000 nM	–	0.769
FT3469 [12], 3000 nM	–	0.666

Source: the supplement of paper PMC13207355
